Data published in PubChem BioAssay (NCI).
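A five-concentration, 48-hour dose response in 96-well plates underlies each endpoint, interpolated linearly between surrounding concentrations. GI50 = concentration required for 50% inhibition of growth. TGI denotes the concentration required for complete inhibition of growth.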

Experiments:
Assay in all cases: inhibition of tumour cell growth, NCI panel, 48 h
786-0 renal = test system: 786-0 renal
A549 NSCLC = test system: A549 NSCLC
ACHN renal = test system: ACHN renal
BT-549 breast = test system: BT-549 breast
CAKI-1 renal = test system: CAKI-1 renal
CCRF-CEM leukemia = test system: CCRF-CEM leukemia
COLO 205 colon = test system: COLO 205 colon
DU-145 prostate = test system: DU-145 prostate
EKVX NSCLC = test system: EKVX NSCLC
HCT-15 colon = test system: HCT-15 colon
HL-60(TB) leukemia = test system: HL-60(TB) leukemia
HOP-62 NSCLC = test system: HOP-62 NSCLC
HOP-92 NSCLC = test system: HOP-92 NSCLC
HS 578T breast = test system: HS 578T breast
HT29 colon = test system: HT29 colon
IGROV1 ovarian = test system: IGROV1 ovarian
K-562 leukemia = test system: K-562 leukemia
KM12 colon = test system: KM12 colon
LOX IMVI melanoma = test system: LOX IMVI melanoma
M14 melanoma = test system: M14 melanoma
MALME-3M melanoma = test system: MALME-3M melanoma
MDA-MB-231 breast = test system: MDA-MB-231 breast
MDA-MB-435 = test system: MDA-MB-435
MOLT-4 leukemia = test system: MOLT-4 leukemia
NCI-H226 lung = test system: NCI-H226 lung
NCI-H23 lung = test system: NCI-H23 lung
NCI-H460 lung = test system: NCI-H460 lung
NCI-H522 lung = test system: NCI-H522 lung
NCI/ADR-RES ovarian = test system: NCI/ADR-RES ovarian
OVCAR-3 ovarian = test system: OVCAR-3 ovarian
OVCAR-4 ovarian = test system: OVCAR-4 ovarian
OVCAR-5 ovarian = test system: OVCAR-5 ovarian
OVCAR-8 ovarian = test system: OVCAR-8 ovarian
PC-3 prostate = test system: PC-3 prostate
RPMI-8226 leukemia = test system: RPMI-8226 leukemia
RXF 393 renal = test system: RXF 393 renal
SF-268 CNS = test system: SF-268 CNS
SF-295 CNS = test system: SF-295 CNS
SF-539 CNS = test system: SF-539 CNS
SK-MEL-2 melanoma = test system: SK-MEL-2 melanoma
SK-MEL-28 melanoma = test system: SK-MEL-28 melanoma
SK-MEL-5 melanoma = test system: SK-MEL-5 melanoma
SK-OV-3 ovarian = test system: SK-OV-3 ovarian
SN12C renal = test system: SN12C renal
SNB-19 CNS = test system: SNB-19 CNS
SNB-75 CNS = test system: SNB-75 CNS
SR leukemia = test system: SR leukemia
SW-620 colon = test system: SW-620 colon
T-47D breast = test system: T-47D breast
TK-10 renal = test system: TK-10 renal
U251 CNS = test system: U251 CNS
UACC-62 melanoma = test system: UACC-62 melanoma
UO-31 renal = test system: UO-31 renal

Structure (SMILES): COc1ccc(C(=S)N(C)NC(=O)CC(=O)NN(C)C(=S)c2ccc(OC)cc2)cc1
- GI50 (786-0 renal): 58.5 µM
- TGI (786-0 renal): > 100 µM
- GI50 (A549 NSCLC): 24.5 µM
- TGI (A549 NSCLC): > 100 µM
- GI50 (ACHN renal): 50.7 µM
- TGI (ACHN renal): > 100 µM
- GI50 (BT-549 breast): 50.3 µM
- TGI (BT-549 breast): > 100 µM
- GI50 (CAKI-1 renal): 31.8 µM
- TGI (CAKI-1 renal): > 100 µM
- GI50 (CCRF-CEM leukemia): 23.4 µM
- TGI (CCRF-CEM leukemia): > 100 µM
- GI50 (COLO 205 colon): 12.8 µM
- TGI (COLO 205 colon): 70.8 µM
- GI50 (DU-145 prostate): 46.9 µM
- TGI (DU-145 prostate): > 100 µM
- GI50 (EKVX NSCLC): 32 µM
- TGI (EKVX NSCLC): > 100 µM
- GI50 (HCT-15 colon): 17.6 µM
- TGI (HCT-15 colon): > 100 µM
- GI50 (HL-60(TB) leukemia): > 100 µM
- TGI (HL-60(TB) leukemia): > 100 µM
- GI50 (HOP-62 NSCLC): > 100 µM
- TGI (HOP-62 NSCLC): > 100 µM
- GI50 (HOP-92 NSCLC): 283 nM
- TGI (HOP-92 NSCLC): > 100 µM
- GI50 (HS 578T breast): 24.4 µM
- TGI (HS 578T breast): 82.6 µM
- GI50 (HT29 colon): 39.1 µM
- TGI (HT29 colon): > 100 µM
- GI50 (IGROV1 ovarian): 54.4 µM
- TGI (IGROV1 ovarian): > 100 µM
- GI50 (K-562 leukemia): 59.4 µM
- TGI (K-562 leukemia): > 100 µM
- GI50 (KM12 colon): 62.7 µM
- TGI (KM12 colon): > 100 µM
- GI50 (LOX IMVI melanoma): 28.9 µM
- TGI (LOX IMVI melanoma): > 100 µM
- GI50 (M14 melanoma): 33.5 µM
- TGI (M14 melanoma): > 100 µM
- GI50 (MALME-3M melanoma): 52.3 µM
- TGI (MALME-3M melanoma): > 100 µM
- GI50 (MDA-MB-231 breast): > 100 µM
- TGI (MDA-MB-231 breast): > 100 µM
- GI50 (MDA-MB-435): 59.9 µM
- TGI (MDA-MB-435): > 100 µM
- GI50 (MOLT-4 leukemia): > 100 µM
- TGI (MOLT-4 leukemia): > 100 µM
- GI50 (NCI-H226 lung): 49.8 µM
- TGI (NCI-H226 lung): > 100 µM
- GI50 (NCI-H23 lung): 46.6 µM
- TGI (NCI-H23 lung): > 100 µM
- GI50 (NCI-H460 lung): 18.1 µM
- TGI (NCI-H460 lung): > 100 µM
- GI50 (NCI-H522 lung): 45.9 µM
- TGI (NCI-H522 lung): > 100 µM
- GI50 (NCI/ADR-RES ovarian): 29.1 µM
- TGI (NCI/ADR-RES ovarian): > 100 µM
- GI50 (OVCAR-3 ovarian): 36.5 µM
- TGI (OVCAR-3 ovarian): > 100 µM
- GI50 (OVCAR-4 ovarian): 31.7 µM
- TGI (OVCAR-4 ovarian): > 100 µM
- GI50 (OVCAR-5 ovarian): 76.3 µM
- TGI (OVCAR-5 ovarian): > 100 µM
- GI50 (OVCAR-8 ovarian): 38.9 µM
- TGI (OVCAR-8 ovarian): > 100 µM
- GI50 (PC-3 prostate): 26.1 µM
- TGI (PC-3 prostate): > 100 µM
- GI50 (RPMI-8226 leukemia): 11.9 nM
- TGI (RPMI-8226 leukemia): > 100 µM
- GI50 (RXF 393 renal): 40.4 µM
- TGI (RXF 393 renal): 92.3 µM
- GI50 (SF-268 CNS): 43.2 µM
- TGI (SF-268 CNS): > 100 µM
- GI50 (SF-295 CNS): 1630 nM
- TGI (SF-295 CNS): 39 µM
- GI50 (SF-539 CNS): 51.9 µM
- TGI (SF-539 CNS): > 100 µM
- GI50 (SK-MEL-2 melanoma): 79.6 µM
- TGI (SK-MEL-2 melanoma): > 100 µM
- GI50 (SK-MEL-28 melanoma): 42.6 µM
- TGI (SK-MEL-28 melanoma): > 100 µM
- GI50 (SK-MEL-5 melanoma): 36.2 µM
- TGI (SK-MEL-5 melanoma): > 100 µM
- GI50 (SK-OV-3 ovarian): > 100 µM
- TGI (SK-OV-3 ovarian): > 100 µM
- GI50 (SN12C renal): 98 µM
- TGI (SN12C renal): > 100 µM
- GI50 (SNB-19 CNS): > 100 µM
- TGI (SNB-19 CNS): > 100 µM
- GI50 (SNB-75 CNS): > 100 µM
- TGI (SNB-75 CNS): > 100 µM
- GI50 (SR leukemia): > 100 µM
- TGI (SR leukemia): > 100 µM
- GI50 (SW-620 colon): 33.3 µM
- TGI (SW-620 colon): > 100 µM
- GI50 (T-47D breast): 58.6 µM
- TGI (T-47D breast): > 100 µM
- GI50 (TK-10 renal): 67 µM
- TGI (TK-10 renal): > 100 µM
- GI50 (U251 CNS): 45.8 µM
- TGI (U251 CNS): > 100 µM
- GI50 (UACC-62 melanoma): 37 µM
- TGI (UACC-62 melanoma): > 100 µM
- GI50 (UO-31 renal): 24.9 µM
- TGI (UO-31 renal): > 100 µM
